Data set [1] concerns Oryza sativa. Kind of data set: Pre-emergence phytotoxicity against Oryza sativa cv. Koshihikari (rice) assessed as induction of leaf sheath browning at 2.5 kg ai/ha measured after 14 days post treatment under flooded conditions. The data set is classed as organism-based. Conditions: in vivo, other, 336 h.
Data set [2] deals with Cyperus difformis. The data set is described as follows: Pre-emergence herbicidal activity against Cyperus difformis assessed as phytotoxic weed control visual ratings at 2.5 kg ai/ha measured after 14 days post treatment under flooded conditions. The data set is classed as functional.
Data set [3] deals with Pontederia vaginalis. Kind of data set: Pre-emergence herbicidal activity against Monochoria vaginalis assessed as phytotoxic weed control visual ratings at 2.5 kg ai/ha measured after 14 days post treatment under flooded conditions. The data set is classed as functional.
Data set [4] deals with Lindernia procumbens. The data set is described as follows: Pre-emergence herbicidal activity against Lindernia procumbens assessed as phytotoxic weed control visual ratings at 2.5 kg ai/ha measured after 14 days post treatment under flooded conditions. The data set is classed as functional.
Data set [5] has as its system Rotala indica. The data set is described as follows: Pre-emergence herbicidal activity against Rotala indica assessed as phytotoxic weed control visual ratings at 2.5 kg ai/ha measured after 14 days post treatment under flooded conditions. In kind it is functional.
In data set [6] the test system is Schoenoplectiella juncoides. The data set is described as follows: Pre-emergence herbicidal activity against Schoenoplectiella juncoides assessed as phytotoxic weed control visual ratings at 2.5 kg ai/ha measured after 14 days post treatment under flooded conditions. The data set is classed as functional.
Data set [7] concerns Oryza sativa. Kind of data set: Pre-emergence phytotoxicity against Oryza sativa cv. Koshihikari (rice) assessed as phytotoxic crop injury visual ratings at 2.5 kg ai/ha measured after 14 days post treatment under flooded conditions. The data set is classed as organism-based. Conditions: in vivo, other, 336 h.
Data set [8] concerns Elatine triandra. Kind of data set: Pre-emergence herbicidal activity against Elatine triandra assessed as phytotoxic weed control visual ratings at 2.5 kg ai/ha measured after 14 days post treatment under flooded conditions. The data set is classed as functional.
The subject of data set [9] is Echinochloa oryzicola. The data set is described as follows: Pre-emergence herbicidal activity against Echinochloa oryzicola assessed as phytotoxic weed control visual ratings at 2.5 kg ai/ha measured after 14 days post treatment under flooded conditions. The data set is classed as functional.
For data set [10], the system named is Elatine triandra. The data set is described as follows: Pre-emergence herbicidal activity against Elatine triandra assessed as phytotoxic weed control visual ratings at 1.25 kg ai/ha measured after 14 days post treatment under flooded conditions. In kind it is functional.
In data set [11] the test system is Pontederia vaginalis. Kind of data set: Pre-emergence herbicidal activity against Monochoria vaginalis assessed as phytotoxic weed control visual ratings at 1.25 kg ai/ha measured after 14 days post treatment under flooded conditions. The data set is classed as functional.
For data set [12], the system named is Cyperus difformis. The data set is described as follows: Pre-emergence herbicidal activity against Cyperus difformis assessed as phytotoxic weed control visual ratings at 1.25 kg ai/ha measured after 14 days post treatment under flooded conditions. The data set is classed as functional.
Data set [13] deals with Schoenoplectiella juncoides. Kind of data set: Pre-emergence herbicidal activity against Schoenoplectiella juncoides assessed as phytotoxic weed control visual ratings at 1.25 kg ai/ha measured after 14 days post treatment under flooded conditions. In kind it is functional.
The test system of data set [14] is Oryza sativa. The data set is described as follows: Pre-emergence phytotoxicity against Oryza sativa cv. Koshihikari (rice) assessed as phytotoxic crop injury visual ratings at 1.25 kg ai/ha measured after 14 days post treatment under flooded conditions. In kind it is organism-based. Conditions: in vivo, other, 336 h.
Data set [15] has as its system Echinochloa oryzicola. The data set is described as follows: Pre-emergence herbicidal activity against Echinochloa oryzicola assessed as phytotoxic weed control visual ratings at 1.25 kg ai/ha measured after 14 days post treatment under flooded conditions. In kind it is functional.
Data set [16] deals with Lindernia procumbens. The data set is described as follows: Pre-emergence herbicidal activity against Lindernia procumbens assessed as phytotoxic weed control visual ratings at 1.25 kg ai/ha measured after 14 days post treatment under flooded conditions. The data set is classed as functional.
Data set [17] has as its system Rotala indica. The data set is described as follows: Pre-emergence herbicidal activity against Rotala indica assessed as phytotoxic weed control visual ratings at 1.25 kg ai/ha measured after 14 days post treatment under flooded conditions. In kind it is functional.
Data set [18] is described as follows: Selectivity index, ratio of ED10 for Oryza sativa to ED90 for Echinochloa oryzicola by post-emergence exposure method.
Another data set has as its system Chenopodium album. The data set is described as follows: Pre-emergence herbicidal activity against Chenopodium album assessed as phytotoxic weed control visual ratings at 500 g ai/ha measured after 14 days post treatment under upland field conditions. The data set is classed as functional.
Data set [19] has as its system Echinochloa oryzicola. Kind of data set: Pre-emergence herbicidal activity against Echinochloa oryzicola assessed as phytotoxic weed control visual ratings at 25 g ai/ha measured after 14 days post treatment under flooded conditions. In kind it is functional.
The test system of a further data set is Zea mays. The data set is described as follows: Pre-emergence phytotoxicity against Zea mays (maize) assessed as phytotoxic crop injury visual ratings at 500 g ai/ha measured after 14 days post treatment under upland field conditions. In kind it is organism-based. The settings on record: in vivo, other, 336 h.
Data set [20] deals with Oryza sativa. Kind of data set: Post-emergence phytotoxicity against Oryza sativa cv. Koshihikari (rice) assessed as phytotoxic crop injury visual ratings measured after 14 days post treatment. The data set is classed as organism-based. Conditions: in vivo, 336 h.
Data set [21] relates to Pontederia vaginalis. Kind of data set: Early post-emergence herbicidal activity against Monochoria vaginalis assessed as phytotoxic weed control visual ratings at 50 kg ai/ha measured after 14 days post treatment under flooded conditions. In kind it is functional.
Data set [22] concerns Echinochloa oryzicola. The data set is described as follows: Post-emergence herbicidal activity against Echinochloa oryzicola assessed as phytotoxic weed control visual ratings measured after 14 days post treatment. The data set is classed as functional.
In data set [23] the test system is Cyperus difformis. Kind of data set: Pre-emergence herbicidal activity against Cyperus difformis assessed as phytotoxic weed control visual ratings at 25 g ai/ha measured after 14 days post treatment under flooded conditions. In kind it is functional.
Data set [24] deals with Schoenoplectiella juncoides. Kind of data set: Pre-emergence herbicidal activity against Schoenoplectiella juncoides assessed as phytotoxic weed control visual ratings at 25 g ai/ha measured after 14 days post treatment under flooded conditions. The data set is classed as functional.
The subject of data set [25] is Lindernia procumbens. Kind of data set: Pre-emergence herbicidal activity against Lindernia procumbens assessed as phytotoxic weed control visual ratings at 25 g ai/ha measured after 14 days post treatment under flooded conditions. In kind it is functional.
The test system of data set [26] is Echinochloa crus-galli. Kind of data set: Pre-emergence herbicidal activity against Echinochloa crus-galli (barnyard grass) assessed as phytotoxic weed control visual ratings at 500 g ai/ha measured after 14 days post treatment under upland field conditions. The data set is classed as functional.
Data set [27] relates to Echinochloa crus-galli. The data set is described as follows: Early post-emergence herbicidal activity against Echinochloa crus-galli (barnyard grass) assessed as phytotoxic weed control visual ratings at 50 kg ai/ha measured after 14 days post treatment under flooded conditions. In kind it is functional.
The nature of data set [28]: Selectivity index, ratio of ED10 for Oryza sativa to ED90 for Echinochloa oryzicola by pre-emergence exposure method.
Data set [29] deals with Oryza sativa. Kind of data set: Pre-emergence phytotoxicity against Oryza sativa cv. Koshihikari (rice) assessed as phytotoxic crop injury visual ratings measured after 14 days post treatment. In kind it is organism-based. Conditions: in vivo, 336 h.
For another data set, the system named is Digitaria ciliaris. The data set is described as follows: Pre-emergence herbicidal activity against Digitaria ciliaris assessed as phytotoxic weed control visual ratings at 500 g ai/ha measured after 14 days post treatment under upland field conditions. In kind it is functional.
Another data set relates to Ammannia multiflora. Kind of data set: Early post-emergence herbicidal activity against Ammannia multiflora assessed as phytotoxic weed control visual ratings at 50 kg ai/ha measured after 14 days post treatment under flooded conditions. In kind it is functional.
The subject of data set [30] is Echinochloa oryzicola. Kind of data set: Pre-emergence herbicidal activity against Echinochloa oryzicola assessed as phytotoxic weed control visual ratings measured after 14 days post treatment. The data set is classed as functional.
The subject of data set [31] is Rotala indica. Kind of data set: Pre-emergence herbicidal activity against Rotala indica assessed as phytotoxic weed control visual ratings at 25 g ai/ha measured after 14 days post treatment under flooded conditions. The data set is classed as functional.
Data set [32] concerns Oryza sativa. The data set is described as follows: Pre-emergence phytotoxicity against Oryza sativa cv. Koshihikari (rice) assessed as phytotoxic crop injury visual ratings at 25 g ai/ha measured after 14 days post treatment under flooded conditions. In kind it is organism-based. Conditions: in vivo, other, 336 h.
The next data set concerns Amaranthus viridis. The data set is described as follows: Pre-emergence herbicidal activity against Amaranthus viridis assessed as phytotoxic weed control visual ratings at 500 g ai/ha measured after 14 days post treatment under upland field conditions. The data set is classed as functional.
Data set [33] has as its system Pontederia vaginalis. Kind of data set: Pre-emergence herbicidal activity against Monochoria vaginalis assessed as phytotoxic weed control visual ratings at 25 g ai/ha measured after 14 days post treatment under flooded conditions. In kind it is functional.
For data set [34], the system named is Elatine triandra. The data set is described as follows: Pre-emergence herbicidal activity against Elatine triandra assessed as phytotoxic weed control visual ratings at 25 g ai/ha measured after 14 days post treatment under flooded conditions. In kind it is functional.

Here are results for seven compounds from ChEMBL document CHEMBL3046126, “Synthesis and Herbicidal Activity of New Oxazolidinedione Derivatives” (J Pestic Sci, 1999).

Consider `CC(C)=C1OC(=O)N(c2ccc(Cl)cc2Cl)C1=O`, for which the Activity entry in the data set with Oryza sativa [1] was “Toxic”. Moreover, the Phytotoxicity in the data set on Cyperus difformis [2] was determined as 100%; with Pontederia vaginalis [3], 100%; in the data set with Lindernia procumbens [4], 100%; in the data set on Rotala indica [5] it was 100%; in data set [6] it was 100%; with Oryza sativa [7] it was 20%. The Phytotoxicity in the data set with Elatine triandra [8] and in the data set with Echinochloa oryzicola [9] was 100% in each case.

For `CC(C)=C1OC(=O)N(c2ccc(Cl)cc2)C1=O`, in the data set on Oryza sativa [1], the Activity result is “Toxic”. Besides, the Phytotoxicity in the data set with Cyperus difformis [2], in the data set on Elatine triandra [10], in the data set with Pontederia vaginalis [3], in the data set with Pontederia vaginalis [11], with Cyperus difformis [12] and in the data set with Lindernia procumbens [4] was 100% in each case. Further, the Phytotoxicity in [13] is reported as 100%; in the data set on Rotala indica [5] it was 100%; in [6], 100%; in the data set with Oryza sativa [7], 30%; with Oryza sativa [14], 10%; in the data set with Elatine triandra [8] it was 100%. In addition, the Phytotoxicity in the data set with Echinochloa oryzicola [15] is recorded as 90%; in the data set with Lindernia procumbens [16], 100%; with Rotala indica [17], 100%; in the data set on Echinochloa oryzicola [9] it was 100%.

`C#CCOc1cc(N2C(=O)OC(=C(C)C)C2=O)c(F)cc1Cl`: the Selectivity Index in data set [18] and in data set [28] was 2 in each case. Also, the Phytotoxicity with Chenopodium album was found to be 100%; in the data set on Echinochloa oryzicola [19], 100%; in the data set with Zea mays it was 10%; in the data set on Pontederia vaginalis [21] it was 100%; in the data set with Cyperus difformis [23], 100%; in data set [24], 100%. Further, the Phytotoxicity with Lindernia procumbens [25] is recorded as 100%; in the data set on Echinochloa crus-galli [26], 80%; in the data set with Echinochloa crus-galli [27], 100%; in the data set on Digitaria ciliaris, 100%; in the data set with Ammannia multiflora, 100%; with Rotala indica [31] it was 100%. Besides, the Phytotoxicity in the data set on Oryza sativa [32] was determined as 30%; in the data set on Amaranthus viridis, 100%; in the data set with Pontederia vaginalis [33], 100%; in the data set on Elatine triandra [34], 100%. Further, the ED10 was 25 gAi/ha with Oryza sativa [20] and 6.25 gAi/ha in the data set with Oryza sativa [29]. Further, the ED90 with Echinochloa oryzicola [22] was found to be 12.5 gAi/ha; in the data set with Echinochloa oryzicola [30], 3.13 gAi/ha.

`C#CCOc1cc(N2C(=O)OC(=C(C)C)C2=O)c(F)cc1Br`: the Phytotoxicity is 100% in the data set with Pontederia vaginalis [21], 80% with Echinochloa crus-galli [27] and 100% in the data set on Ammannia multiflora.

In the case of `CC(C)=C1OC(=O)N(c2ccc(Cl)c(Cl)c2)C1=O`, the Activity entry with Oryza sativa [1] is on record as “Toxic”. The Phytotoxicity with Cyperus difformis [2] was determined as 100%; in the data set on Pontederia vaginalis [3] it was 80%; in the data set on Lindernia procumbens [4] it was 100%; in the data set with Rotala indica [5], 100%; in data set [6], 80%; in the data set with Oryza sativa [7], 10%. The Phytotoxicity amounted to 100% in the data set on Elatine triandra [8] and 10% in the data set on Echinochloa oryzicola [9].

Turning to `CC(C)Oc1cc(-n2nc(C(C)(C)C)oc2=O)c(Cl)cc1Cl` [OXADIAZON], the Selectivity Index in data set [18] and in [28] was 8 each time. Besides, the Phytotoxicity with Chenopodium album is listed as 100%; in the data set with Echinochloa oryzicola [19], 90%; with Zea mays, 40%; in the data set with Cyperus difformis [23], 100%; in [24], 100%; in the data set with Lindernia procumbens [25], 100%. The Phytotoxicity is 100% in the data set on Echinochloa crus-galli [26]; 100% in the data set with Digitaria ciliaris; 100% in the data set with Rotala indica [31]; 0% in the data set on Oryza sativa [32]; 100% with Amaranthus viridis; 100% in the data set on Pontederia vaginalis [33]. In addition, the Phytotoxicity in the data set on Elatine triandra [34] was 100%. Further, the ED10 in the data set on Oryza sativa [20] is 400 gAi/ha; with Oryza sativa [29], 200 gAi/ha. Also, the values for the ED90 in the data set on Echinochloa oryzicola [22] and in the data set with Echinochloa oryzicola [30] were 50 gAi/ha and 25 gAi/ha, respectively.

With `C#CCOc1cc(N2C(=O)OC(=C(C)C)C2=O)c(Cl)cc1Cl`, the Phytotoxicity with Pontederia vaginalis [21] is given as 100%; in the data set with Echinochloa crus-galli [27], 90%; with Ammannia multiflora, 90%.
